pKi: −log10 of the molar value.

This note sets out measurements from US20020193383A1, “1-(N-phenylalkylaminoalkyl)piperazine derivatives substituted at position 2 of the phenyl ring” (Recordati S.A., Chemical and Pharmaceutical Comoany, priority 1997, published 2002).

The target of the experiment is T1, human 5-HT1A serotonergic receptor (Homo sapiens, UniProt P08908).
T1 construct: expressed in transfected cells; host or cells: HeLa (stably transfected)
T1 sequence (P08908 1-422): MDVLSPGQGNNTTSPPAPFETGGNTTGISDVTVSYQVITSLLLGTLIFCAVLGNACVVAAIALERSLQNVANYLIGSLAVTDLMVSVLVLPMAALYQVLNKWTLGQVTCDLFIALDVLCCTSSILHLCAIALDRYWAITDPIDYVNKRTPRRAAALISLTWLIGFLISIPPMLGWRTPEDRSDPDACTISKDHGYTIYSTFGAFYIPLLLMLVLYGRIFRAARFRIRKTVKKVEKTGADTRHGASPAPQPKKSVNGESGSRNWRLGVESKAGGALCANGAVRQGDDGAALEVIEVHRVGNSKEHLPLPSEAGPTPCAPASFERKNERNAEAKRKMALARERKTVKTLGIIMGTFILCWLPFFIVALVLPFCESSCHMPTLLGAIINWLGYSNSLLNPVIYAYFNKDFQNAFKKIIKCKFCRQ
Put plainly: Binding to recombinant human 5-HT1A receptors ([3H]8-OH-DPAT, HeLa cell membranes). The note with it: read-out: Binding affinity for the 5-HT1A receptor, Ki. The procedure: Genomic clone G-21 coding for the human 5-HT1A serotonergic receptor is stably transfected in a human cell line (HeLa). HeLa cells were grown as monolayers in Dulbecco's modified Eagle's medium (DMEM), supplemented with 10% fetal calf serum and gentamicin ([…]), 5% CO2 at 37° C. Cells were detached from the growth flask at 95% confluence by a cell scraper and were lysed in ice-cold 5 mM Tris and 5 mM EDTA buffer (pH 7.4). Homogenates were centrifuged at 40000×g×20 min and pellets were resuspended in a small volume of ice-cold 5 mM Tris and 5 mM EDTA buffer (pH 7.4) and immediately frozen and stored at −70° C. until use. On the day of experiment, cell membranes were resuspended in binding buffer: 50 mM Tris HCl (pH 7.4), 2.5 mM MgCl2, 10 μM pargiline (Fargin et al., Nature 335, 358-360, 1988). Membranes were incubated in a final volume of 1 ml for 30 min at 30° C. with 0.2-1 nM [3H]8-OH-DPAT, in absence or presence of competing drugs; non-specific binding was determined in the presence of 10 μM 5-HT. The incubation was stopped by addition of ice-cold Tris-HCl buffer and rapid filtration through 0.2% polyethyleneimine pretreated Whatman GF/B or Schleicher & Schuell GF52 filters.
The inhibition of specific binding of the radioligands by the tested drugs was analyzed to estimate the IC50 value by using the non-linear curve-fitting program Allfit (De Lean et al., Am. J. Physiol. 235, E97-E102, 1978). The IC50 value was converted to an affinity constant (Ki) by the equation of Cheng & Prusoff (Cheng, Y. C.; Prusoff, W. H. Biochem. Pharmacol. 22, 3099-3108, 1973).
Broadly, the pKi is −log10 of the Ki, conventionally taken in molar units. As to `COc1cc(O)ccc1N1CCN(CCN(C(=O)C2CCCCC2)c2ccccc2OC(F)(F)F)CC1` [Example 93, 1[N-cyclohexylcarbonyl-N-(2-trifluoromethoxyphenyl)-2-aminoethyl]-4-(4-hydroxy-2-methoxyphenyl)piperazine], the pKi is 8.80.

As to `COc1cc(OC(C)=O)ccc1N1CCN(CCN(C(=O)C2CCCCC2)c2ccccc2OC(F)(F)F)CC1` [Example 94, 1-[N-cyclohexylcarbonyl-N-(2-trifluoromethoxyphenyl)-2-aminoethyl]-4-(4-acetoxy-2-methoxyphenyl)piperazine], the pKi is 8.67.

Consider `COc1cc(OC(=O)C(C)C)ccc1N1CCN(CCN(C(=O)C2CCCCC2)c2ccccc2OC(F)(F)F)CC1` [Example 96, 1-[N-cyclohexylcarbonyl-N-(2-trifluoromethoxyphenyl)-2-aminoethyl]-4-[4-(2-methylpropionyloxy)-2-methoxyphenyl]piperazine], for which the pKi is 8.92.
